# Values of other authors in patent US20250241957A1, “INTRA-ERYTHROCYTE DEXAMETHASONE FOR TREATMENT OF ATAXIA-[…]” (priority 2024, published 2025).
# Tested on: participants with A-T
# Settings: betamethasone used for two years
compound,measurement,value
C[C@H]1C[C@H]2[C@@H]3CCC4=CC(=O)C=C[C@]4(C)[C@@]3(F)[C@@H](O)C[C@]2(C)[C@@]1(O)C(=O)CO [betamethasone],Adrenal suppression,documented in all participants
